From paper PMC7721954, “Preclinical comparison of four [^18F, ^natGa]rhPSMA-7 isomers: influence of the stereoconfiguration on pharmacokinetics” (EJNMMI Research, 2020)

Key:
PSMA = target: T1, PSMA (Homo sapiens, UniProt Q04609); test: Competitive binding (IC50) on LNCaP cells vs ([125I]I-BA)KuE; settings: ratio of IC50 values
T1 construct: host or cells: LNCaP cells
Procedure: (§1) Competitive binding studies were determined on LNCaP cells (1.5 × 10^5 cells in 1 mL/well) after incubation at 4 °C for 1 h, using (((S)-1-carboxy-5-(4-([^125I]iodo)benzamido)pentyl)carbamoyl)-L-glutamic acid (([^125I]I-BA)KuE; 0.2 nM/well) as reference radioligand (n = 5–9). Internalization studies of the radiolabeled ligands (0.5 nM/well) were performed on LNCaP cells (1.25 × 10^5 cells in 1 mL/well) at 37 °C for 1 h and accompanied by ([^125I]I-BA)KuE (0.2 nM/well), as reference. Data were corrected for non-specific binding and normalized to the specific internalization observed for the reference (n = 3–6). A detailed description of the experimental procedures was previously published.

[1] = system: LNCaP tumor-bearing male CB-17 SCID mice; test: Biodistribution 1 h p.i. with competition (co-injection of 2-PMPA); format: in vivo; settings: co-injected with 2-PMPA (8 mg/kg), n = 3
Procedure: (§2) LNCaP tumor xenografts were established in 6–8 weeks old male CB-17 SCID mice as described previously.
(§3) 1–3 MBq (0.2 nmol) of the [^18F, ^natGa]rhPSMA inhibitors were injected into the tail vein of LNCaP tumor-bearing male CB-17 SCID mice that were sacrificed 1 h post injection (p.i.) (n = 4 for 7.1, n = 5 for 7.2, n = 4 for 7.3, n = 5 for 7.4 and n = 3 for 7). Selected organs were removed, weighed, and measured in a γ-counter. For competition studies, 8 mg/kg of 2-PMPA (2-(Phosphonomethyl)-pentandioic acid) were co-administered (n = 3).

LNCaP tumor-bearing mice = test: Differential uptake and excretion pattern of isomers after injection of the diastereomeric mixture (radio-HPLC); format: in vivo; settings: blood, liver, kidney and tumor, 30 min p.i., n = 4
Procedure: With the intention to identify even marginal differences in the in vivo behavior, all four [^18F, ^natGa]rhPSMA-7 isomers were co-evaluated in one single tumor-bearing mouse in order to quantify the differential uptake and excretion pattern of each isomer. For this purpose, the diastereomeric mixture [^18F, ^natGa]rhPSMA-7 was produced in high molar activity (AM) of 247–349 GBq/µmol (at end of synthesis) and the abundance of each isomer was determined by radio-HPLC. Mice (n = 4) were injected with [^18F, ^natGa]rhPSMA-7 (180–280 MBq, 0.9–1.0 nmol) and left under anesthesia. After 30 min p.i., they were sacrificed and urine, blood, liver, kidneys and tumor were collected and processed. Radioactivity was extracted from solid tissues by means of a Potter–Elvehjem tissue grinder (n = 1) or a ball mill (n = 3) and separated from the protein fraction by subsequent cartridge-based solid-phase extraction (SPE). Blood samples were diluted, centrifuged and the supernatant was purified by SPE (see supporting information). Urine and extracts from tissue samples were then analyzed by radio-HPLC to quantify the fraction of each isomer in each sample. Finally, the relative percentage difference between the abundance of each isomer in the injected diastereomeric mixture (values taken from the quality control) and the abundance of the respective isomer in each analyzed tissue or body fluid was calculated. […] PeakFit allows for automated nonlinear separation, analysis and quantification of HPLC elution profiles by deconvolution procedures that uses a Gaussian response function with a Fourier deconvolution/filtering algorithm (see Additional file 1: Fig. 7).
Extraction via the Potter-Elvehjem Tissue Grinder. Tumor and kidneys were separately homogenized in the tissue homogeniser with 1 mL of extraction buffer (850 μL 1 M HEPES pH 7.4, 100 μL 20 mM PMPA and 100 μL 1 M NaCl) for 30 min. The resulting homogenate was collected and centrifuged at 13000×g for 5 min. Subsequently, the supernatant was collected, centrifuged again (13000×g, 5 min) and loaded on a Strata X cartridge (33 μm Polymeric Reversed Phase 500 mg) preconditioned with 5 mL MeOH, followed by 5 mL H2O. After washing with 5 mL H2O, the cartridge was eluted with a 3:2 mixture (v/v) of MeCN in H2O supplemented with 1% TFA. For radio-HPLC analysis the eluates were diluted with water.
Extraction via the MM-400 Ball Mill. The samples (tumor, kidney, liver) were separately homogenized in a 2 mL tube together with 3 grinding balls (3 mm diameter) and 1 mL of extraction buffer (850 μL 1 M HEPES pH 7.4, 100 μL 20 mM PMPA and 100 μL 1 M NaCl) for 10 min at 30 Hz. The homogenate was centrifuged at 13 000×g for 5 min and the supernatant was collected. […]

[2] = system: LNCaP tumor-bearing male CB-17 SCID mice; test: Biodistribution 1 h p.i.; format: in vivo
Procedure: as §2, §3

human serum albumin = target: T2, human serum albumin (Homo sapiens, UniProt P02768); test: Human serum albumin binding on Chiralpak HSA column; format: in vitro ADME
T2 construct: purchased
Procedure: Approximately 1 MBq of the ^18F-ligand was dissolved in 1 mL of a 1:1 mixture (v/v) of phosphate-buffered saline (PBS, pH 7.4) and n-octanol (n = 18–23). After vigorous mixing of the suspension for 3 min, the vial was centrifuged at 15,000 × g for 3 min and 100 μL aliquots of both layers were measured in a γ-counter. HSA binding of ^19F-^natGa-rhPSMA ligands was determined according to a previously published procedure.

LNCaP cells = test: Internalization into LNCaP cells relative to ([125I]I-BA)KuE; format: cell-based; settings: 1 h, 37 °C, percentage of reference ligand ([125I]I-BA)KuE, n = 3-6
Procedure: as §1

T2 sequence (P02768 25-609): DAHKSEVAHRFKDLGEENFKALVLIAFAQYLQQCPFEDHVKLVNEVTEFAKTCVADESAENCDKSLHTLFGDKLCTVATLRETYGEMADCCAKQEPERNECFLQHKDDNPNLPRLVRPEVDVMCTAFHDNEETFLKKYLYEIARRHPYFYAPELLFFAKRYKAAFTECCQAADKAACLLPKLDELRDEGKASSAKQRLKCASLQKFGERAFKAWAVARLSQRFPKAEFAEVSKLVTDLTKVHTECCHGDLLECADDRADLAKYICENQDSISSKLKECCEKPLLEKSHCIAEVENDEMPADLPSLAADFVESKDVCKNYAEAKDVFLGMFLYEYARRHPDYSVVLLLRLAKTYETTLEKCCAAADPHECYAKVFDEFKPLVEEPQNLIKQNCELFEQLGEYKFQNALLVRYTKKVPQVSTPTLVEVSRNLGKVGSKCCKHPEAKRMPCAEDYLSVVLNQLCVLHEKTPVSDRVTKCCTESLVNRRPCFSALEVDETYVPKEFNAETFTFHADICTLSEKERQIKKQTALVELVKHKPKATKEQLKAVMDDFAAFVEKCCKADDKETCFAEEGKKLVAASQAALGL
T1 sequence (Q04609 whole entry): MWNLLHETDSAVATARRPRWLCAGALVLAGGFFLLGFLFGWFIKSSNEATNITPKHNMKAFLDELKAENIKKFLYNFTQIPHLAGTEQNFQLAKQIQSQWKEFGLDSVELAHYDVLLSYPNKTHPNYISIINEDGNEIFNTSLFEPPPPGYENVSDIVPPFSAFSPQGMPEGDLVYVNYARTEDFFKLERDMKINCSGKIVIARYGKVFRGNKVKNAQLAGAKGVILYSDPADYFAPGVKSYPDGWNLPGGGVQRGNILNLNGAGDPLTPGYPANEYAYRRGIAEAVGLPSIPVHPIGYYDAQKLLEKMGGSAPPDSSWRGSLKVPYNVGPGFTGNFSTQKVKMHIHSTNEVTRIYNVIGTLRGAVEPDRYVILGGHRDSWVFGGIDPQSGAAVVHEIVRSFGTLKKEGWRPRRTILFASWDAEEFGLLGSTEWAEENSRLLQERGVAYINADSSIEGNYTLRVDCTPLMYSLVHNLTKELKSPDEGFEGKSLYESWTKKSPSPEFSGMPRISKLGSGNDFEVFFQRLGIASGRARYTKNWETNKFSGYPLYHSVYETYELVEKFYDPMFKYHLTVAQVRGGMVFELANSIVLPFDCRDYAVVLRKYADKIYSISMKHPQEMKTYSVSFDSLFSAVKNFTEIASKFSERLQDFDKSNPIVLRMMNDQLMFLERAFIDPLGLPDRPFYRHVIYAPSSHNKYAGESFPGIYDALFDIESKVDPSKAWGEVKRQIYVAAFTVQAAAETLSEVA

Row | Biodistribution Adrenals [1] | Biodistribution Blood [1] | Biodistribution Bone [1] | Biodistribution Heart [1] | Biodistribution Intestine [1] | Biodistribution Kidneys [1] | Biodistribution Liver [1] | Biodistribution Lung [1] | Biodistribution Muscle [1] | Biodistribution Pancreas [1] | Biodistribution Spleen [1] | Biodistribution Stomach [1] | Biodistribution Tumor [1] | Biodistribution Adrenals [2] | Biodistribution Blood [2] | Biodistribution Bone [2] | Biodistribution Heart [2] | Biodistribution Intestine [2] | Biodistribution Kidneys [2] | Compound | Abundance (enrichment) of the isomer in tissue compared to time point of injection (LNCaP tumor-bearing mice) | also measured
1 | 0.003 ± 0.004 % ID/g | 0.86 ± 0.40 % ID/g | 0.33 ± 0.24 % ID/g | 0.37 ± 0.16 % ID/g | 0.66 ± 0.32 % ID/g | 10.9 ± 2.5 % ID/g | 0.43 ± 0.07 % ID/g | 0.85 ± 0.29 % ID/g | 0.17 ± 0.15 % ID/g | 0.16 ± 0.10 % ID/g | 0.21 ± 0.08 % ID/g | 0.97 ± 0.81 % ID/g | 0.94 ± 0.22 % ID/g | 2.0 ± 0.25 % ID/g | 0.53 ± 0.13 % ID/g | 0.50 ± 0.31 % ID/g | 0.53 ± 0.03 % ID/g | 0.30 ± 0.16 % ID/g | 220 ± 24.8 % ID/g | CC(C)(C)[Si]([18F])(c1ccc(C(=O)NC[C@@H](NC(=O)CC[C@H](C(=O)O)N2CCN(CC(=O)[O-])CCN(CC(=O)[O-])CCN(CC(=O)[O-])CC2)C(=O)N[C@H](CCCCNC(=O)CCC(=O)NCCC[C@@H](NC(=O)CC[C@H](NC(=O)N[C@@H](CCC(=O)O)C(=O)O)C(=O)O)C(=O)O)C(=O)O)cc1)C(C)(C)C.[Ga+3] [[^18F, ^natGa]rhPSMA-7.1] | higher | Affinity fold higher than that of [19F]DCFPyL (PSMA): 1.8 fold; Biodistribution Liver [2]: 0.75 ± 0.62 % ID/g; Biodistribution Lung [2]: 1.1 ± 0.21 % ID/g; Biodistribution Muscle [2]: 0.32 ± 0.30 % ID/g; Biodistribution Pancreas [2]: 0.45 ± 0.12 % ID/g; Biodistribution Spleen [2]: 20.0 ± 4.2 % ID/g; Biodistribution Stomach [2]: 0.28 ± 0.17 % ID/g; Biodistribution Tumor [2]: 14.1 ± 4.1 % ID/g; HSA-binding (human serum albumin): 98%; Internalization (internalized activity) (LNCaP cells): 70 ± 5 % of reference
2 | 0.03 ± 0.04 % ID/g | 0.82 ± 0.17 % ID/g | 1.0 ± 0.8 % ID/g | 0.37 ± 0.05 % ID/g | 0.36 ± 0.08 % ID/g | 7.2 ± 2.4 % ID/g | 0.48 ± 0.14 % ID/g | 0.74 ± 0.14 % ID/g | 0.20 ± 0.05 % ID/g | 0.18 ± 0.09 % ID/g | 0.28 ± 0.15 % ID/g | 0.20 ± 0.07 % ID/g | 0.99 ± 0.19 % ID/g | 3.57 ± 2.38 % ID/g | 1.15 ± 0.30 % ID/g | 0.62 ± 0.30 % ID/g | 0.71 ± 0.26 % ID/g | 0.37 ± 0.09 % ID/g | 153 ± 80.3 % ID/g | CC(C)(C)[Si]([18F])(c1ccc(C(=O)NC[C@H](NC(=O)CC[C@@H](C(=O)O)N2CCN(CC(=O)[O-])CCN(CC(=O)[O-])CCN(CC(=O)[O-])CC2)C(=O)N[C@H](CCCCNC(=O)CCC(=O)NCCC[C@@H](NC(=O)CC[C@H](NC(=O)N[C@@H](CCC(=O)O)C(=O)O)C(=O)O)C(=O)O)C(=O)O)cc1)C(C)(C)C.[Ga+3] [[^18F, ^natGa]rhPSMA-7.4] | lowest enrichment in blood, liver and kidney, but also the lowest uptake by tumors | Biodistribution Liver [2]: 0.69 ± 0.20 % ID/g; Biodistribution Lung [2]: 1.59 ± 0.61 % ID/g; Biodistribution Muscle [2]: 0.31 ± 0.08 % ID/g; Biodistribution Pancreas [2]: 0.50 ± 0.30 % ID/g; Biodistribution Spleen [2]: 18.4 ± 9.77 % ID/g; Biodistribution Stomach [2]: 0.25 ± 0.06 % ID/g; Biodistribution Tumor [2]: 18.9 ± 3.27 % ID/g; HSA-binding (human serum albumin): 97%; Internalization (internalized activity) (LNCaP cells): 207 ± 4 % of reference
